According to PMC11045757, “Group 3 medulloblastoma transcriptional networks collapse under domain specific EP300/CBP inhibition” (Nature Communications, 2024):

Tested on: 460 barcoded cancer cell lines
Assay: PRISM pooled barcoded cancer cell line growth screen, 10-point dose-response, 5 days, AUC
Format: cell-based
Parameters: scale not given here
Description: Several small molecule inhibitors of distinct protein domains of EP300/CBP are available, though the majority target the histone acetyltransferase domain (HAT) or bromodomain (BRD)[5],[10],[21],[22]. […] We used these tools to investigate the relative contribution of the EP300/CBP BRD or HAT domain to tumor cell growth (Fig. 1a). To do so, we performed 10-point, dose-response growth assays using mixed pools of 460 barcoded cancer cell lines, over five days of treatment in vitro[33],[34]. Growth was measured using an area-under-the-curve (AUC) approach (Supplementary Table 1, Supplementary Fig. 1a). […] Given potential differences in compound penetration and solubility, and to compare the relative cell line and tumor-specific effects of these two compounds in assays performed non-simultaneously, we performed a median normalization of each dataset (Supplementary Table 2).

CNC(=O)Nc1ccc2c(c1)CCC21OC(=O)N(CC(=O)N(Cc2ccc(F)cc2)C(C)C(F)(F)F)C1=O (stereo not shown) [Compound A485]
AUC (MG63, Osteosarcoma): 0.9115 | AUC (MHHES1, Ewing Sarcoma): 0.4553 | AUC (MHHNB11, Neuroblastoma): 0.7182 | AUC (MIAPACA2, Pancreatic Cancer): 0.9009 | AUC (MKN1, Gastric Cancer): 0.9671 | AUC (MKN7, Gastric Cancer): 0.9501 | AUC (MKN45, Gastric Cancer): 0.5235 | AUC (MOLM13, AML): 0.5776 | AUC (MOLM16, AML): 1 | AUC (MOLT3, T-acute leukemia): 0.8162 | AUC (MOLT16, T-acute leukemia): 0.9273 | AUC (MON, Rhabdoid): 0.6327 | AUC (NB1, Neuroblastoma): 0.493 | AUC (NB4, AML): 1 | AUC (NCIH23, Lung Cancer): 0.8307 | AUC (NCIH28, Lung Cancer): 0.8488 | AUC (NCIH82, Lung Cancer): 1 | AUC (NCIH196, Lung Cancer): 0.825 | AUC (NCIH211, Lung Cancer): 0.6824 | AUC (NCIH226, Lung Cancer): 0.8402 | AUC (NCIH292, Lung Cancer): 0.7841 | AUC (NCIH322, Lung Cancer): 0.7616 | AUC (NCIH358, Lung Cancer): 0.8611 | AUC (NCIH441, Lung Cancer): 0.8818 | AUC (NCIH460, Lung Cancer): 0.9648 | AUC (NCIH520, Lung Cancer): 0.9521 | AUC (NCIH524, Lung Cancer): 0.8317 | AUC (NCIH596, Lung Cancer): 0.8954 | AUC (NCIH647, Lung Cancer): 1 | AUC (NCIH650, Lung Cancer): 0.8159 | AUC (NCIH661, Lung Cancer): 0.6677 | AUC (NCIH747, Colon/Colorectal Cancer): 0.838 | AUC (NCIH841, Lung Cancer): 0.8663 | AUC (NCIH1048, Lung Cancer): 0.8631 | AUC (NCIH1299, Lung Cancer): 0.8424 | AUC (NCIH1341, Lung Cancer): 1 | AUC (NCIH1373, Lung Cancer): 0.7413 | AUC (NCIH1437, Lung Cancer): 0.6724 | AUC (NCIH1568, Lung Cancer): 0.921 | AUC (NCIH1573, Lung Cancer): 0.8005 | AUC (NCIH1581, Lung Cancer): 0.7694 | AUC (NCIH1648, Lung Cancer): 0.776 | AUC (NCIH1792, Lung Cancer): 0.691 | AUC (NCIH1793, Lung Cancer): 0.7572 | AUC (NCIH1838, Lung Cancer): 0.8275 | AUC (NCIH1930, Lung Cancer): 1 | AUC (NCIH1944, Lung Cancer): 0.8729 | AUC (NCIH1975, Lung Cancer): 0.8115 | AUC (NCIH2004RT, Rhabdoid): 0.9741 | AUC (NCIH2052, Lung Cancer): 0.6997 | AUC (NCIH2122, Lung Cancer): 0.4802 | AUC (NCIH2170, Lung Cancer): 0.9434 | AUC (NCIH2172, Lung Cancer): 0.8484 | AUC (NCIH2196, Lung Cancer): 0.8734 | AUC (NCIH2228, Lung Cancer): 0.7811 | AUC (NCIH2347, Lung Cancer): 0.6039 | AUC (NCIH2444, Lung Cancer): 0.8316 | AUC (NCO2, CML): 0.8351 | AUC (NIHOVCAR3, Ovarian Cancer): 0.9964 | AUC (NUDHL1, Lymphoma): 0.9213 | AUC (NUGC3, Gastric Cancer): 0.8775 | AUC (OAW42, Ovarian Cancer): 0.7266 | AUC (OC314, Ovarian Cancer): 0.891 | AUC (OC316, Ovarian Cancer): 0.9187 | AUC (OCIAML2, AML): 0.6159 | AUC (OCIAML3, AML): 0.7819 | AUC (OCILY19, Lymphoma): 0.6711 | AUC (OCILY132, T-cell lymphoma): 0.9357 | AUC (OCIM1, AML): 0.6185 | AUC (OE19, Esophageal Cancer): 0.9392 | AUC (OE21, Esophageal Cancer): 0.6998 | AUC (ONCODG1, Ovarian Cancer): 0.9734 | AUC (ONS76, Medulloblastoma): 0.7969 | AUC (OSRC2, Kidney Cancer): 0.9758 | AUC (OV56, Ovarian Cancer): 0.9822 | AUC (OVCAR8, Ovarian Cancer): 0.8889 | AUC (OVISE, Ovarian Cancer): 0.951 | AUC (OVK18, Ovarian Cancer): 0.5397 | AUC (OVKATE, Ovarian Cancer): 0.8663 | AUC (OVTOKO, Ovarian Cancer): 0.8262 | AUC (PANC0203, Pancreatic Cancer): 0.6928 | AUC (PANC0327, Pancreatic Cancer): 0.889 | AUC (PANC0403, Pancreatic Cancer): 0.6894 | AUC (PANC0504, Pancreatic Cancer): 0.8448 | AUC (PANC0813, Pancreatic Cancer): 0.8655 | AUC (PATU8902, Pancreatic Cancer): 0.9465 | AUC (PC3, Prostate Cancer): 0.8494 | AUC (PECAPJ15, Head and Neck Cancer): 0.6653 | AUC (PF382, T-acute leukemia): 0.7674 | AUC (PK1, Pancreatic Cancer): 0.6974 | AUC (PK59, Pancreatic Cancer): 0.9772 | AUC (PSN1, Pancreatic Cancer): 0.6172 | AUC (RCM1, Colon/Colorectal Cancer): 0.8245 | AUC (RD, Rhabdomyosarcoma): 0.8188 | AUC (RDES, Ewing Sarcoma): 0.6507 | AUC (RERFLCAI, Lung Cancer): 0.874 | AUC (RERFLCKJ, Lung Cancer): 0.7393 | AUC (RH4, Rhabdomyosarcoma): 0.678 | AUC (RH28, Rhabdomyosarcoma): 1 | AUC (RH36, Rhabdomyosarcoma): 1 | AUC (RHJT, Rhabdomyosarcoma): 1 | AUC (RI1, B-cell Lymphoma): 0.6781 | AUC (RL952, Endometrial/Uterine Cancer): 0.946 | AUC (RL, B-cell Lymphoma): 0.7056 | AUC (RPMI8402, T-acute leukemia): 0.6488 | AUC (RT4, Bladder Cancer): 0.8068 | AUC (RVH421, Melanoma): 0.6261 | AUC (S117, Thyroid Sarcoma): 0.733 | AUC (SAOS2, Osteosarcoma): 0.6843 | AUC (SCABER, Bladder Cancer): 0.7254 | AUC (SCC9, Head and Neck Cancer): 0.6982 | AUC (SCC25, Head and Neck Cancer): 0.8637 | AUC (SCLC21H, Lung Cancer): 0.7482 | AUC (SEM, B-cell Leukemia): 0.591 | AUC (SF539, Glioma): 0.7626
